Test results reported in patent publication US12551437B2, “Liposome compositions comprising weak acid drugs and uses thereof” (Pharmosa Biopharm Inc., priority 2017, dated 2026).

Tests used:
[1] = Drug loading and encapsulation efficiency of liposome suspensions (G-25 column separation, HPLC); format: physicochemical
Description: Liposome colloidal suspensions were prepared by ethanol injection technique. […] (DSPE-PEG2000) were dissolved in 2.86 ml of ethanol. The lipid solution in ethanol was injected into 17.4 ml of sodium acetate (200 mM or 400 mM) with vigorous stirring at 60° C. Liposomes were formed as soon as the lipid solution was in contact with sodium acetate. This was followed by extruding the liposome suspension through a 200 nm and a 100 nm polycarbonate membrane (six times, respectively). The liposome with about 100 nm was obtained and diafiltrated against a citrate buffer (pH 5.5) to form a higher inside/lower outside pH gradient between the external medium and the internal aqueous medium of the liposomes. The empty liposome suspension was then stored at 4° C. before drug loading process.
PGE1 (alprostadil) was added to the liposome suspension in the preceding paragraph at various drug/lipid molar ratios at room temperature (25° C.) for 20 min. The PGE1 loaded liposome suspension was stored at 4° C.
The liposome suspension was prepared according to the method described in Section 1.1, except that sodium acetate (200 mM or 400 mM) was replaced by sodium bicarbonate (e.g. 200 mM, 400 mM or other concentrations).
The amount of the drug encapsulated into the liposome was quantified using Waters Alliance® HPLC system with a Photodiode Array (PDA) Detector. […] Separation was performed in C18 Column (Phenomenex Prodigy 5U ODS-3 150×4.6 mm), and then post-reaction was carried out by mixed with IN of KOH at 65° C. The peak of the drug e.g. PGE1 was detected at 280 nm. The retention time was about 4.6 minutes.
Encapsulation efficiency (EE), i.e. the percentage of the drug encapsulated (or loaded) in the internal aqueous medium of the liposomes to the total amount of the drug present in the liposome suspension (i.e. drug in the external medium and drug loaded into the internal aqueous medium of the liposomes) was quantified as follows. Briefly, the liposome suspension was subjected to column chromatography. The free or non-associated drug (i.e. the drug in the external medium) and the liposomes containing the encapsulated drugs in the internal aqueous medium were separated from each other by eluting the liposome suspension through a G-25 column. The amount of the free drug was determined using Waters HPLC with PDA detection, and the amount of the encapsulated drug in the internal aqueous medium of the liposome, after destructing the liposomes with methanol (90% methanol and 10% liposome suspension), was also determined using the same method. The encapsulation efficiency was calculated using the following formula,
[formula] where L is the amount of the encapsulated drug in the internal aqueous medium of the liposomes, and F is the amount of the free drug in the external medium.
In addition, the internal drug concentration (mM) was calculated as follows. Internal drug concentration (mM)=[Drug [μg/mL]×EE %/molecular weight]/[trapped volume*]

[2] = cited from earlier work
[3] = Incubation of liposome suspensions at simulated human physiological condition: pH of external medium and leakage; format: physicochemical; conditions: 20 minutes; for pH at incubation temperature: external buffer 280 mOsm/Kg, citrate 10 mM; for liposome leakage: 280 mOsm/Kg
Description: Liposome suspensions using various concentrations of sodium bicarbonate for PGE1 loading were prepared according to section 1.1 of Example 1. The liposome suspensions were incubated at 25° C. and 37° C. for 20 minutes in an external buffer with osmolarity between 280-300 mOsm/Kg, to simulate human physiological condition.
Incubating formulations with a bicarbonate concentration of higher than about 1000 mM in human physiological condition (37° C. and 280-300 mOsm/Kg) generated more CO2, and lead to liposome leakage. The leaked liposomes released bicarbonate salt and the drug from the internal aqueous medium into the external medium and increased the pH of external medium to higher than 6.5.

pulmonary hypertension = assay: Hypoxia-induced pulmonary hypertension in rats, mean pulmonary arterial pressure (PAP); format: in vivo, Sprague Dawley rats; conditions: treprostinil at 6 μg/kg, single dose, microsprayer at the trachea bifurcation, hypoxic rats (FiO2=0.1)
Description: To induce pulmonary hypertension, a pressure catheter was inserted into the pulmonary artery of each rat. One end of the catheter was exposed at the nape of the neck and connected to a pressure transducer. 24 Hours after the catheter insertion, the rats were transferred into a hypoxic chamber where the oxygen (O2) level was reduced to 10% (FiO2=0.1) by increasing the level of nitrogen (N2). Once stable pulmonary hypertension was established, each rat was administered with a single dose of the three test articles: saline (N=6), free treprostinil at 6 μg/kg (N=6) or the pharmaceutical composition of Example 4 with treprostinil at 6 μg/kg (liposomal treprostinil, N=6). The test article was administered using a microsprayer at the trachea bifurcation of the rat. Following the test article administration, mean pulmonary arterial pressure (PAP) was measured at scheduled time points.

[4] = liposomal formulation (4-1) HSPC:cholesterol:DSPE-mPEG2000 3:2:0.075, internal bicarbonate salt 400 mM, drug loading at 25° C.
[5] = sodium bicarbonate internal salt 50 mM, 10 mM of phospholipid
[6] = sodium bicarbonate internal salt 150 mM, 10 mM of phospholipid
[7] = sodium bicarbonate internal salt 200 mM, 10 mM of phospholipid
[8] = sodium bicarbonate internal salt 250 mM, 10 mM of phospholipid
[9] = sodium bicarbonate internal salt 300 mM, 10 mM of phospholipid
[10] = sodium bicarbonate internal salt 400 mM, 10 mM of phospholipid
[11] = sodium bicarbonate internal salt 500 mM, 5 mM of phospholipid
[12] = sodium bicarbonate internal salt 600 mM, 10 mM of phospholipid
[13] = sodium bicarbonate internal salt 800 mM, 10 mM of phospholipid
[14] = liposomal formulation (4-2) HSPC:cholesterol:DSPG 3:2:0.075, internal bicarbonate salt 400 mM, drug loading at 40° C.
[15] = liposomal formulation (4-3) DPPC:Cholesterol:DSPE-mPEG2000 3:2:0.075, internal bicarbonate salt 400 mM, drug loading at 40° C.
[16] = liposomal formulation (4-4) DSPC:DPPC:Cholesterol:mPEG2000-DSPE 2.7:0.3:2:0.075, internal bicarbonate salt 250 mM, drug loading at 40° C.
[17] = liposomal formulation (4-5) HSPC:Cholesterol:mPEG2000-DSPE:stearylamine 3:2:0.075:0.025, internal bicarbonate salt 400 mM, drug loading at 40° C.
[18] = liposomal formulation (4-6) HSPC:DMPC:Cholesterol:mPEG2000-DSPE 2.7:0.3:2:0.075, internal bicarbonate salt 400 mM, drug loading at 40° C.

**Q.** For `CCCCC[C@H](O)/C=C/[C@H]1[C@H](O)CC(=O)[C@@H]1CCCCCCC(=O)O` [Prostaglandin E1 (PGE1), Prostaglandin E1], which E.E. [1, 4] is on record?
**A.** The E.E. was 92.8%.

**Q.** What about the “Internal [drug]” value [1, 4] of the same compound?
**A.** The value was 161.81 mM.

**Q.** What about the “Internal drug to internal salt molar ratio” value [1, 4] of the same compound?
**A.** Its value is 0.405.

**Q.** What about the “Measured [drug]” value [1, 4] of the same compound?
**A.** The value was 1940.8 µg/mL.

**Q.** What about the E.E. [1, 5] of the same compound?
**A.** Its E.E. is 93.8%.

**Q.** What about the “Internal [PGE1]” value [1, 5] of the same compound?
**A.** The value was 19.08 mM.

**Q.** What about the “Internal drug to internal salt molar ratio” value [1, 5] of the same compound?
**A.** Its value is 0.382.

**Q.** What about the “[PGE1]” value [1, 5] of the same compound?
**A.** The value was 226.4 µg/mL.

**Q.** What about the E.E. [1, 6] of the same compound?
**A.** Its E.E. is 95.7%.

**Q.** And the “Internal [PGE1]” value [1, 6]?
**A.** The value was 60.25 mM.

**Q.** And the “Internal drug to internal salt molar ratio” value [1, 6]?
**A.** The value was 0.402.

**Q.** And the “[PGE1]” value [1, 6]?
**A.** Its value is 700.7 µg/mL.

**Q.** And the E.E. [1, 7]?
**A.** The E.E. was 95.9%.

**Q.** And the “Internal [PGE1]” value [1, 7]?
**A.** The value was 80.47 mM.

**Q.** What about the “Internal drug to internal salt molar ratio” value [1, 7] of the same compound?
**A.** The value was 0.402.

**Q.** What about the “[PGE1]” value [1, 7] of the same compound?
**A.** Its value is 934.0 µg/mL.

**Q.** And the E.E. [1, 8]?
**A.** Its E.E. is 92.3%.

**Q.** What about the “Internal [PGE1]” value [1, 8] of the same compound?
**A.** Its value is 119.94 mM.

**Q.** What about the “Internal drug to internal salt molar ratio” value [1, 8] of the same compound?
**A.** Its value is 0.480.

**Q.** What about the “[PGE1]” value [1, 8] of the same compound?
**A.** Its value is 1446.4 µg/mL.

**Q.** And the E.E. [1, 9]?
**A.** Its E.E. is 92.7%.

**Q.** What about the “Internal [PGE1]” value [1, 9] of the same compound?
**A.** The value was 146.32 mM.

**Q.** And the “Internal drug to internal salt molar ratio” value [1, 9]?
**A.** Its value is 0.488.

**Q.** What about the “[PGE1]” value [1, 9] of the same compound?
**A.** Its value is 1756.9 µg/mL.

**Q.** What about the E.E. [1, 10] of the same compound?
**A.** The E.E. was 92.8%.

**Q.** And the “Internal [PGE1]” value [1, 10]?
**A.** The value was 161.81 mM.

**Q.** What about the “Internal drug to internal salt molar ratio” value [1, 10] of the same compound?
**A.** The value was 0.405.

**Q.** What about the “[PGE1]” value [1, 10] of the same compound?
**A.** The value was 1940.8 µg/mL.

**Q.** What about the E.E. [1, 11] of the same compound?
**A.** The E.E. was 96.0%.

**Q.** What about the “Internal [PGE1]” value [1, 11] of the same compound?
**A.** Its value is 252.52 mM.

**Q.** What about the “Internal drug to internal salt molar ratio” value [1, 11] of the same compound?
**A.** The value was 0.505.

**Q.** What about the “[PGE1]” value [1, 11] of the same compound?
**A.** Its value is 1463.9 µg/mL.

**Q.** What about the E.E. [1, 12] of the same compound?
**A.** The E.E. was 93.1%.

**Q.** What about the “Internal [PGE1]” value [1, 12] of the same compound?
**A.** Its value is 215.66 mM.

**Q.** And the “Internal drug to internal salt molar ratio” value [1, 12]?
**A.** The value was 0.359.

**Q.** And the “[PGE1]” value [1, 12]?
**A.** The value was 2578.3 µg/mL.

**Q.** And the E.E. [1, 13]?
**A.** Its E.E. is 90.2%.

**Q.** And the “Internal [PGE1]” value [1, 13]?
**A.** Its value is 130.87 mM.

**Q.** And the “Internal drug to internal salt molar ratio” value [1, 13]?
**A.** The value was 0.164.

**Q.** And the “[PGE1]” value [1, 13]?
**A.** Its value is 1614.9 µg/mL.

**Q.** And the pKa [2]?
**A.** Its pKa is 4.35.

**Q.** And the “pH at incubation temperature” value ([3]; bicarbonate 600 mM, 25° C.)?
**A.** The value was 5.42.

**Q.** What about the “pH at incubation temperature” value ([3]; bicarbonate 600 mM, 37° C.) of the same compound?
**A.** The value was 5.43.

**Q.** And the “pH at incubation temperature” value ([3]; bicarbonate 800 mM, 25° C.)?
**A.** The value was 5.38.

**Q.** What about the “pH at incubation temperature” value ([3]; bicarbonate 800 mM, 37° C.) of the same compound?
**A.** The value was 5.53.

**Q.** And the “pH at incubation temperature” value ([3]; bicarbonate 1000 mM, 25° C.)?
**A.** Its value is 5.37.

**Q.** And the liposome leakage ([3]; bicarbonate 1000 mM, 37° C.)?
**A.** The liposome leakage was “leakage”.

**Q.** And the “pH at incubation temperature” value ([3]; bicarbonate 1000 mM, 37° C.)?
**A.** The value was 6.68.

**Q.** And the “pH at incubation temperature” value ([3]; bicarbonate 1300 mM, 25° C.)?
**A.** The value was 5.44.

**Q.** What about the liposome leakage ([3]; bicarbonate 1300 mM, 37° C.) of the same compound?
**A.** The liposome leakage was “leakage”.

**Q.** What about the “pH at incubation temperature” value ([3]; bicarbonate 1300 mM, 37° C.) of the same compound?
**A.** The value was 6.74.

**Q.** For `CCCCC[C@H](O)CC[C@@H]1[C@H]2Cc3cccc(OCC(=O)O)c3C[C@H]2C[C@H]1O` [Prostacycline (treprostinil), treprostinil], which E.E. [1, 14] is on record?
**A.** The E.E. was 97.6%.

**Q.** What about the “Internal [drug]” value [1, 14] of the same compound?
**A.** Its value is 121.78 mM.

**Q.** What about the “Internal drug to internal salt molar ratio” value [1, 14] of the same compound?
**A.** Its value is 0.304.

**Q.** And the “Measured [drug]” value [1, 14]?
**A.** The value was 1530.0 µg/mL.

**Q.** What about the E.E. [1, 15] of the same compound?
**A.** Its E.E. is 90.4%.

**Q.** And the “Internal [drug]” value [1, 15]?
**A.** Its value is 115.01 mM.

**Q.** What about the “Internal drug to internal salt molar ratio” value [1, 15] of the same compound?
**A.** The value was 0.288.

**Q.** And the “Measured [drug]” value [1, 15]?
**A.** The value was 1560 µg/mL.

**Q.** What about the E.E. [1, 16] of the same compound?
**A.** The E.E. was 97.4%.

**Q.** What about the “Internal [drug]” value [1, 16] of the same compound?
**A.** Its value is 77.84 mM.

**Q.** And the “Internal drug to internal salt molar ratio” value [1, 16]?
**A.** Its value is 0.311.

**Q.** And the “Measured [drug]” value [1, 16]?
**A.** Its value is 980 µg/mL.

**Q.** What about the E.E. [1, 17] of the same compound?
**A.** The E.E. was 93.7%.

**Q.** What about the “Internal [drug]” value [1, 17] of the same compound?
**A.** The value was 114.62 mM.

**Q.** And the “Internal drug to internal salt molar ratio” value [1, 17]?
**A.** The value was 0.287.

**Q.** What about the “Measured [drug]” value [1, 17] of the same compound?
**A.** Its value is 1500 µg/mL.

**Q.** And the E.E. [1, 18]?
**A.** Its E.E. is 94.5%.

**Q.** What about the “Internal [drug]” value [1, 18] of the same compound?
**A.** The value was 119.45 mM.

**Q.** What about the “Internal drug to internal salt molar ratio” value [1, 18] of the same compound?
**A.** The value was 0.299.

**Q.** And the “Measured [drug]” value [1, 18]?
**A.** Its value is 1550 µg/mL.

**Q.** What about the “maximum reduction of mean PAP” value (pulmonary hypertension) of the same compound?
**A.** The value was 20%.
